Laboratory results reported in ChEMBL document CHEMBL5154707, “Synthesis and biological evaluation of novel hybrids of phenylsulfonyl furoxan and phenstatin derivatives as potent anti-tumor agents” (Eur J Med Chem, 2022).
The source made the active and inactive calls. The calls are words filed in the database; no cut-off is given here.

What was measured:
MDA-MB-231 = assay: cells; settings: Homo sapiens, MDA-MB-231, 48 h
Description: Antiproliferative activity against human MDA-MB-231 cells after 48 hrs by MTT assay

A2780 [1] = assay: cells; settings: Homo sapiens, A2780, 48 h
Description: Antiproliferative activity against human A2780 cells after 48 hrs by MTT assay

HCT-116 = assay: Antiproliferative activity against human HCT-116 cells after 48 hrs by MTT assay; settings: HCT-116, 48 h
A549 = assay: cells; settings: Homo sapiens, A549, 48 h
[2] = Cytotoxicity against human HOSE cells after 48 hrs by MTT assay; type: toxicity, cell-based
[3] = Antiproliferative activity against human A2780/PTX cells after 48 hrs by MTT assay
A2780cisR = assay: Antiproliferative activity against human A2780 cisR cells after 48 hrs by MTT assay; type: functional, cell-based
A2780 [4] = assay: Induction of nitric oxide release in human A2780 cells measured by Griess reagent based assay; type: functional, cell-based
[5] = Resistant factor, ratio of IC50 for antiproliferative activity against human A2780/PTX cells to IC50 for human A2780 cells; type: functional
[6] = Resistant factor, ratio of IC50 for antiproliferative activity against human A2780 cisR cells to IC50 for human A2780 cells; type: functional
Tubulin = Tubulin (Sus scrofa, UniProt P02554+P02550); assay: Inhibition of pig brain tubulin polymerization
Tubulin (Homo sapiens) [7] = molecular target: T1, Tubulin (Homo sapiens) (UniProt P68371+Q9H4B7+P0DPH7+P68366+Q13509+Q71U36+P04350+Q3ZCM7+P07437+P68363+Q9BQE3+Q6PEY2+Q13885+Q9BVA1+Q9BUF5); assay: Inhibition of tubulin polymerization in A549 cells assessed as disruption of microtubule network at 20 nM measured by immunofluorescence assay; type: cell-based
Tubulin (Homo sapiens) [8] = molecular target: T1, Tubulin (Homo sapiens); assay: Inhibition of tubulin polymerization in A549 cells assessed as disruption of microtubule network at 10 to 20 nM measured by immunofluorescence assay; type: cell-based; settings: dose 10-20 nM

IC50 (MDA-MB-231) [nM]	IC50 (A2780 [1]) [nM]	IC50 (HCT-116) [nM]	IC50 (A549) [nM]	SMILES	also measured
> 20000	> 20000	> 20000	> 20000	COc1ccc(C(=O)c2ccc(F)cc2)cc1O	–
51	120	170	21000	COc1ccc(C(=O)c2cc(OC)c(OC)c(OC)c2)cc1O [PHENSTATIN]	IC50 at 48 h [2]: 160 nM; IC50 [3]: 9350 nM; IC50 (A2780cisR): 2850 nM; Activity (A2780 [4]): Active; Ratio IC50 [5]: 77.9; Ratio IC50 [6]: 23.8
–	–	–	–	COc1cc(OCCOc2no[n+]([O-])c2S(=O)(=O)c2ccccc2)cc(C(=O)c2ccc(Br)cc2)c1	IC50 (Tubulin): 1600 nM; inhibition (Tubulin (Homo sapiens) [7]): Active; inhibition (Tubulin (Homo sapiens) [8]): Active
2110	1160	3650	224000	COc1ccc(C(=O)c2ccc(Br)cc2)cc1O	–
1870	–	2680	235000	O=S(=O)(c1ccccc1)c1no[n+]([O-])c1S(=O)(=O)c1ccccc1	Activity (A2780 [4]): Active
–	–	–	–	CC(=O)O[C@H]1C(=O)[C@@]2(C)[C@H]([C@H](OC(=O)c3ccccc3)[C@]3(O)C[C@H](OC(=O)[C@H](O)[C@@H](NC(=O)c4ccccc4)c4ccccc4)C(C)=C1C3(C)C)[C@]1(OC(C)=O)CO[C@@H]1C[C@@H]2O [PACLITAXEL]	IC50 at 48 h [2]: 18 nM
4180	3690	2650	6640	COc1ccc(C(=O)c2ccc(Cl)cc2)cc1O	–
120	170	124000	34000	COc1ccc(C(=O)c2ccc3ccccc3c2)cc1O	–

SMILES	IC50 (MDA-MB-231) [nM]	IC50 (A2780 [1]) [nM]	IC50 (HCT-116) [nM]	IC50 (A549) [nM]	also measured
COc1ccc(/C=C\c2cc(OC)c(OC)c(OC)c2)cc1O [COMBRETASTATIN A4]	12	–	–	6	–
